Assay results reported in PubChem BioAssay (NCI).
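Cultured in 96-well plates, cells were exposed to test compound for 48 hours across five concentrations. GI50 marks 50% less growth. TGI is the concentration that stops growth completely.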

Tests used:
Test in all cases: growth of human tumour cells (NCI), 48 h
DU-145 prostate = system: DU-145 prostate
LOX IMVI melanoma = system: LOX IMVI melanoma
TK-10 renal = system: TK-10 renal
UACC-62 melanoma = system: UACC-62 melanoma
PC-3 prostate = system: PC-3 prostate
OVCAR-3 ovarian = system: OVCAR-3 ovarian
MCF7 breast = system: MCF7 breast
NCI-H460 lung = system: NCI-H460 lung

Row | SMILES | GI50 (DU-145 prostate) [µM] | TGI (DU-145 prostate) [µM] | GI50 (LOX IMVI melanoma) [µM] | TGI (LOX IMVI melanoma) [µM] | GI50 (TK-10 renal) [µM] | TGI (TK-10 renal) [µM] | GI50 (UACC-62 melanoma) [µM] | TGI (UACC-62 melanoma) [µM] | GI50 (PC-3 prostate) [µM] | TGI (PC-3 prostate) [µM] | GI50 (OVCAR-3 ovarian) [µM] | TGI (OVCAR-3 ovarian) [µM] | GI50 (MCF7 breast) [µM] | TGI (MCF7 breast) [µM] | GI50 (NCI-H460 lung) [µM] | TGI (NCI-H460 lung) [µM]
1 | C[C@]12CC[C@H](O)CC1=CC[C@@H]1[C@@H]2CC[C@]2(C)C(c3cccnc3)=CC[C@@H]12 | > 100 | > 100 | > 100 | > 100 | > 100 | > 100 | 37.4 | > 100 | > 100 | > 100 | 82.1 | > 100 | > 100 | > 100 | > 100 | > 100
2 | Cc1nn(CN2CCN(C)CC2)c(=S)n1/N=C/c1cccc2ccccc12 | 31.7 | > 100 | 17.6 | 31.4 | 20.5 | 50.1 | 17.5 | 33.9 | 22.1 | 64 | 18 | 36 | 20.1 | 50.9 | 20.3 | 41.6
3 | Cc1ccc2c(c1)C(=O)/C(=C/c1ncc([N+](=O)[O-])n1C)O2 | 2.65 | 7.63 | 0.404 | 1.23 | 3.19 | 11 | 1.38 | 3.84 | 2.35 | > 24.9 | 2.53 | 6.55 | 0.534 | 9.88 | 2.05 | 5.97
4 | CCCCC/C(C=C(C#N)C#N)=C/c1ccccc1 | 5.23 | 24.6 | 2.17 | 5.47 | 6.54 | 42.9 | 2.84 | 11.9 | 3.13 | 12.2 | 2.26 | 11.2 | 3.46 | 17.4 | 3.22 | 12.2
5 | O=C1NNC=Nc2ccc(cc2)S(=O)(=O)c2ccc(cc2)N=CNNC1=O | – | > 100 | – | > 100 | – | > 100 | – | > 100 | – | > 100 | – | > 100 | – | > 100 | – | > 100
6 | CSc1ccc(C2=NN(C(C)=O)C(c3cc(C)cs3)C2)cc1 (stereo not drawn) | 34.6 | > 100 | 24.2 | > 100 | 26.9 | > 100 | 11.2 | 98.4 | 20.2 | 95.6 | 23.9 | > 100 | 16.2 | 46.3 | 27.3 | > 100
7 | Cc1ccc(-c2c3c([nH]c(=O)c2C#N)-c2cc(F)ccc2OC3)cc1 | > 100 | > 100 | > 100 | > 100 | 29.4 | 80.9 | 61.2 | > 100 | 88.7 | > 100 | 25.4 | 81.9 | 52.7 | > 100 | 53.4 | > 100
8 | O=C(Nc1ccc(N2CCNCC2)cc1)c1[nH]ncc1Nc1cc(Oc2ccccc2)ncn1 | 3.03 | 11.2 | 0.22 | 0.54 | 2.07 | 4.67 | 2.15 | 4.96 | 1.47 | 3.2 | 2.18 | 6.26 | 1.28 | 4.07 | 0.635 | 2.3
9 | COC(=O)c1cc2c3ccccc3[nH]c2c2ncccc12 | 47.1 | > 100 | 9.46 | > 100 | 12 | > 100 | > 100 | > 100 | > 100 | > 100 | > 100 | > 100 | 14.4 | > 100 | 51.4 | > 100
10 | CNC(=O)OCc1c(COC(=O)NC)c(-c2ccc(Cl)c(Cl)c2)n2c1SCC2 | – | 39.5 | – | 25.5 | – | 19.1 | – | 8.94 | – | 55.1 | – | 25.2 | – | 27.2 | – | 19.9
11 | CC1=C(CCCNS(C)(=O)=O)C2=C(C)C3(CC3)[C@@](C)(O)C(=O)C2=C1 | 0.369 | 17.4 | 1.8 | 6.34 | 2.61 | 8.52 | 1.47 | 3.45 | 1.68 | > 100 | 0.89 | 4.7 | 2.01 | > 100 | 0.266 | 0.812
12 | O=C(CN1CCOCC1)Nc1ccc(Cn2nnc3c2C(=O)c2nnn(Cc4ccc(NC(=O)CN5CCOCC5)cc4)c2C3=O)cc1 | 1.38 | 2.7 | 0.275 | 1.35 | 3.25 | 24.4 | 0.463 | 1.83 | 0.644 | 5.63 | 0.25 | 0.836 | 0.18 | 0.484 | 0.378 | 5.48
13 | O=C(O)CCCCC(CCSCc1ccccc1)SCc1ccccc1 (stereo not drawn) | > 71.2 | > 100 | 48.2 | > 100 | > 73.4 | > 100 | 21.5 | 60.9 | 49.1 | > 100 | 37.9 | > 69.9 | 58.8 | > 100 | 33.4 | > 100
14 | O=C1CNCCCN2CCN(CCCNCC(=O)Nc3ccc(cc3)S(=O)(=O)c3ccc(cc3)NC(=O)CNCCCN3CCN(CCCNCC(=O)Nc4ccc(cc4)S(=O)(=O)c4ccc(cc4)N1)CC3)CC2 | – | > 100 | – | > 100 | – | 56.5 | – | > 67.5 | – | > 100 | – | > 89.4 | – | > 100 | – | 33.8
15 | CC1CCC2(C(=O)O)CCC3(C)C(=CCC4C5(C)CC(O)C(O)C(C)(CO)C5C(O)CC43C)C2C1C (stereo not drawn) | – | > 100 | – | 42.3 | – | > 100 | – | 47.5 | – | > 100 | – | 50.8 | – | > 100 | – | > 100
16 | NCC(=O)NS(=O)(=O)OC[C@H]1O[C@@H](n2cnc3c(N)ncnc32)[C@H](O)[C@@H]1O | 0.699 | 5.61 | 1.68 | 3.52 | 2.75 | 5.78 | 1.85 | 3.78 | 2.66 | 6.47 | 2.01 | 4.48 | 2.85 | 18.7 | 3.23 | 10.1
17 | N#Cc1ccc(C#Cc2ccccc2C#CCCCCO)cc1 | 16 | 29.8 | 18.3 | 32.5 | 16.5 | 33.5 | 15 | 28.4 | 15.6 | 28.9 | 19.9 | 39.6 | 22.1 | 45.6 | 19.7 | 49
18 | Cn1c(N2NC(=O)C(N=Nc3ccc(S(N)(=O)=O)cc3)C2=O)nc(-c2ccco2)c(C#N)c1=O (stereo not drawn) | 14.9 | > 50 | 8.08 | 18.7 | 8.64 | 33.5 | 39.4 | > 50 | 23.2 | > 50 | 13.4 | > 50 | 14.7 | > 50 | > 50 | > 50
19 | Cc1ccc(S(=O)(=O)N(CCOc2ccc(/C(N)=N/Cl)cc2)CCOc2ccc(/C(N)=N\Cl)cc2)cc1 | 16.1 | 48 | 16.7 | > 100 | 40 | > 100 | 19 | 64.5 | 33.7 | > 100 | 5.99 | 31 | 8.08 | > 100 | 5.62 | 25.2
20 | Nc1ccn(C2O[C@H](CO)[C@@H](O)[C@@H]2O)c(=O)n1 (stereo partly drawn) | – | > 100 | – | > 100 | – | > 100 | – | > 100 | – | > 100 | – | > 100 | 27.1 | > 100 | 23 | > 100
21 | N#C/C(=C1C=C/C(=N/O)C(Br)=C/1)c1ccccc1 | 3.24 | 9.69 | 0.521 | 2.9 | 5.02 | 16.5 | 2.97 | 16 | 0.568 | 6.33 | 3.48 | 11.4 | 0.323 | 11.3 | 2.89 | 8.8
22 | COc1cccc(/C=N/NC(=O)c2ccccc2Nc2ccnc(C(F)(F)F)c2)c1O | 0.543 | > 47 | 0.264 | > 100 | 0.392 | > 92.6 | 0.378 | 10.6 | 1.47 | > 33.1 | 0.169 | 43.9 | 0.313 | 29.5 | 0.262 | 8.26
23 | O=NN(Cc1ccc(Cl)cc1)C(C(=O)O)c1ccccc1 (stereo not drawn) | – | > 100 | – | > 100 | – | > 100 | – | > 100 | – | > 100 | – | > 100 | – | > 100 | – | > 100
24 | CCc1c(Oc2ccc(C(C)=O)cc2)c2ccccc2[nH]c1=O | 25.4 | 73.6 | 17.3 | 46.2 | 7.03 | 28.6 | 3.74 | 16.5 | 0.97 | > 40.8 | 26 | 80.9 | 10.5 | > 71.7 | 18.7 | 65.7
